# Source: patent publication US5919701A, “Oligonucleotides with activity against human immunodeficiency virus” (priority 1997, dated 1999)
# Tests used:
# [1] = system: HIV-1 (LAI); assay: Plaque assay, HeLa-CD4 cells infected with HIV-1 (LAI); type: cell-based, HIV-1; HeLa-CD4 cells; conditions: HeLa-CD4, HIV-1 (LAI), plaques formed
# Protocol: (§1) HeLa-CD4 cells were tested using a plaque assay as described below. Specific cells (as described in Table 4) were detached using trypsin-EDTA for 8-10 minutes at 37° C. The cells were then centrifuged at 100 rpm for 10 minutes. Cells were resuspended in 5-10 ml of maintenance medium (Dulbecco's Modified Eagle Medium ("DMEM") containing 10% fetal calf serum, […], […], and 2 mM glutamine). Cells were maintained by splitting the culture once weekly into two 75 cm^2 T-flasks at a concentration of 3×10^4 cells/ml in a total volume of […] maintenance medium.
# (§2) On day 0, the cells were plated into the wells of a 24 well tissue culture plate (Falcon #3047) at a concentration of 2.4×10^4 cells per well. The cells were incubated overnight at 37° C. The next day the medium was aspirated, and 200 μl of HIV virus at a multiplicity of infection ("MOI") of 0.03 was added to each well. The plates were then incubated for 2 hours at 37° C. After the 2 hour incubation, the cells were treated with 800 μl of drug at a concentration (in DMEM) of 1.25× of the final concentration.
# (§3) The treated cells were incubated for 3 days at 37° C. On day 4 the plate was fixed with 1 ml/well of 100% methanol for 15 minutes. The wells were then aspirated and 0.5 ml of 0.3% crystal violet stain was added to the wells. […] Plaques were counted using a microscope. […]
# [2] = system: HIV-1 (LAI); assay: p24 assay, PBMC infected with HIV-1 (LAI); type: cell-based, HIV-1; PBMC
# [3] = system: replication defective HIV generated by 8e5 cells; assay: p24 production by 8e5 cells (p24 capture ELISA of cell lysates); type: cell-based, HIV; human T-cell line 8e5; conditions: for inhibiting p24 production (in words): summary of Table 3; for inhibition / p24 production: range over experiments
# Protocol: The effect of several phosphorothioate antisense oligonucleotides on HIV replication was determined by measuring p24 (an HIV-specific polypeptide) produced by 8e5 cells. The 8e5 cell line is a human T-cell line that generates replication defective HIV (Folks et al. U.S. Pat. No. 4,752,565). The defective HIV contains a single integrated provirus that expresses all HIV proteins at levels typically observed in chronically infected cell lines except those encoded by pol. This defect is due to a single base insertion that causes a frame shift mutation in pol.
# Oligonucleotides having phosphorothioate linkages were synthesized according to Bhatt supra. Synthesized oligonucleotides were purified using HPLC, extracted with ethyl acetate, ethanol precipitated, washed with 80% ethanol and suspended in sterile water to generate high concentration stock solutions that facilitated small volume addition (2-20 μl).
# Phosphorothioate antisense oligonucleotides were added directly to 8e5 cultures. Sterile water and non-specific phosphorothioate oligonucleotides were utilized as controls. The cultures were harvested after 4 days, and the viable cell count and production of p24 antigen were determined. Cell lysates were prepared by spinning down cells from 2 ml wells at 1000 rpm for 10 minutes at 4° C. using a Beckman J-10, and removing the supernatant. The cells were then washed with 5 ml of Hanks balanced salt solution (Gibco) or sterile saline solution (0.9% NaCl), and spun down at 1000 rpm for 10 minutes at 4° C. using a Beckman J-10. The cells were resuspended in 300 μl of TSM (10 mM Tris-HCl pH 7.5, 150 mM NaCl, 2 MM MgCl2) with 0.5% NP-40, and incubated on ice for 5 minutes. The nuclei and cellular debris were then spun down at 2000 rpm using a Beckman J-10. The amount of p24 antigen was determined in cell lysates using a p24 capture ELISA (American Biotechnologies, Inc.).
# The ELISA assay for p24 was selected as a measure of HIV replication because expression of tat and rev are required for efficient p24 production. The percentage of HIV p24 production was calculated as p24/cell production by antisense treated cells divided by p24/cell production by control treated cells. Control treated cells were treated with a random control phosphorothioate oligonucleotide (SEQ. ID. NO. 47: AGGCTTCATCACGTGGACATTGACG).
# [4] = system: HIV patient isolates (AO18); assay: Plaque assay, HeLa-CD4 cells infected with patient isolates (AO18); type: cell-based, HIV; HeLa-CD4 cells; conditions: plaques formed
# Protocol: as §1, §2, §3
# [5] = system: HIV patient isolates (PO22); assay: Plaque assay, HeLa-CD4 cells infected with patient isolates (PO22); type: cell-based, HIV; HeLa-CD4 cells; conditions: plaques formed
# Protocol: as §1, §2, §3
# [6] = system: HIV-2 (ROD); assay: Plaque assay, HeLa-CD4 cells infected with HIV-2 (ROD); type: cell-based, HIV-2; HeLa-CD4 cells; conditions: HeLa-CD4, HIV-2 (ROD), plaques formed
# Protocol: as §1, §2, §3
# [7] = system: human bone marrow cells; assay: Cytotoxicity: colony formation of human bone marrow cells; type: cell-based; conditions: agar medium with G-CSF, eight days in culture
# Protocol: The cytotoxicity of the test oligonucleotides was determined in a system using primary human blood cells using techniques known to those of skill in the art to measure cytotoxicity of anti-neoplastic agents. Human bone marrow cells were harvested and washed in an isotonic solution, then incubated in tissue culture medium containing 0.3% (w/v) agar, 20% (v/v) fetal calf serum, and 10 ng/ml granulocyte-colony stimulating factor with varying amounts of the two test oligonucleotides. The number of colonies formed were measured after eight days in culture. The IC50 for colony formation in this experiment was 2-3 μM for SEQ. ID. NO: 18 and 20-30 μM for SEQ. ID. NO: 22.
# [8] = In vivo mouse study: blood parameters, body weight and organ morphology; conditions: mice, 100 mg/kg
# Protocol: In vivo experiments were also performed using rodent models. These experiments focused on the potential for gross morphological changes in blood tissue upon administration of a phosphorothioate linked oligonucleotide having the nucleic acid sequence of SEQ. ID. NO: 18 (in a solution of PBS). Three mice were given the oligonucleotide at a dose of 100 mg/kg body weight. Four control mice were given PBS alone. Blood samples were taken from each animal at t=0, and at 24 hours each animal was sacrificed and the organs removed. The experimental findings with regard to blood parameters are shown in Table 5, and the results obtained upon visual inspection of the organs are shown in Table 6.
# [9] = 10 μM, Table 3 (small length oligonucleotides)
# [10] = 20 μM, Table 3 (small length oligonucleotides)
# [11] = 2 μM, 4 days, Table 2, relative to cells treated with random control oligonucleotide SEQ. ID. NO. 47
# [12] = 10 μM, 4 days, Table 2, relative to cells treated with random control oligonucleotide SEQ. ID. NO. 47
molecule,measurement,setting,value
"Cc1cn([C@H]2C[C@H](N=[N+]=[N-])[C@@H](CO)O2)c(=O)[nH]c1=O [AZT, reference compound]",IC50,[1]; Human immunodeficiency virus 1,7 to 20 nM
same,IC50,[2]; Human immunodeficiency virus 1,3 nM
ATTCTGCTATGTCGACACCCAA (ATTCTGCTATGTCGACACCCAA; chemistry not given here) [SEQ. ID. NO. 46],% p24 production,[3]; [9],87%
same,% p24 production,[3]; [10],81%
same,inhibiting p24 production (in words),[3],effective
ATTGGTACAAGCAGTTTTAGGCT (ATTGGTACAAGCAGTTTTAGGCT; chemistry not given here) [SEQ. ID. NO. 31],% p24 production,[3]; [11],100%
same,% p24 production,[3]; [12],15%
CGGGCCTGTCGGGTCCCCTCGGGA (CGGGCCTGTCGGGTCCCCTCGGGA; chemistry not given here) [SEQ. ID. NO. 36],% p24 production,[3]; [11],71%
same,% p24 production,[3]; [12],89%
CTGTCGGGTC CCCTCGGG (CTGTCGGGTCCCCTCGGG; chemistry not given here) [SEQ. ID. NO. 26],% p24 production,[3]; [10],44%
same,inhibiting p24 production (in words),[3],particularly effective
CTTCGGGCCTGTCGGGTCCCCTCGGG (CTTCGGGCCTGTCGGGTCCCCTCGGG; chemistry not given here) [SEQ. ID. NO. 18],% p24 production,[3]; [11],55%
same,% p24 production,[3]; [12],0%
same,inhibition,[3],70-100%
same,p24 production,[3],0 to 30%
same,IC50,[1],200 nM
same,IC50,[4]; AZT Resistant,55 nM
same,IC50,[4]; AZT Sensitive,80 nM
same,IC50,[5]; AZT Resistant,18 nM
same,IC50,[5]; AZT Sensitive,45 nM
same,IC50,[6],18 nM
same,IC50,[2],120 nM
same,IC50,[7],2000 to 3000 nM
same,HGB,[8]; 0 hr,16.0 ± 0.2 g/dL
same,PLT,[8]; 0 hr,111.8 ± 2.7 ×10^4 /μl
same,RBC,[8]; 0 hr,1032.3 ± 8.1 ×10^4 /μl
same,WBC,[8]; 0 hr,94.7 ± 18.2 ×10^2 /μl
same,Body Weight,[8]; 24 hours,Unchanged
same,"Morphological findings, Bone Marrow","[8]; 24 hours, visual inspection",Normal
same,"Morphological findings, Heart","[8]; 24 hours, visual inspection",Normal
same,"Morphological findings, Kidney","[8]; 24 hours, visual inspection",Normal
same,"Morphological findings, Liver","[8]; 24 hours, visual inspection",Normal
same,"Morphological findings, Spleen","[8]; 24 hours, visual inspection",Slight Splenomegaly
same,"Morphological findings, Thymus","[8]; 24 hours, visual inspection",Normal
same,HGB,[8]; 24 hr,15.3 ± 0.5 g/dL
same,PLT,[8]; 24 hr,99.4 ± 0.9 ×10^4 /μl
same,RBC,[8]; 24 hr,990.3 ± 34.3 ×10^4 /μl
same,WBC,[8]; 24 hr,79.3 ± 15.3 ×10^2 /μl
GAGCTCTTCGTCGCTGTCTCCGCTTCT (GAGCTCTTCGTCGCTGTCTCCGCTTCT; chemistry not given here) [SEQ. ID. NO. 17],% p24 production,[3]; [11],99%
same,% p24 production,[3]; [12],56%
GCCTATTCTGCTATGTCGACACCCAA (GCCTATTCTGCTATGTCGACACCCAA; chemistry not given here) [SEQ. ID. NO. 35],% p24 production,[3]; [11],56%
same,% p24 production,[3]; [12],0%
same,inhibition,[3],70-100%
same,p24 production,[3],0 to 30%
GCCTGTCGGG TCCC (GCCTGTCGGGTCCC; chemistry not given here) [SEQ. ID. NO. 22],% p24 production,[3]; [9],3%
same,% p24 production,[3]; [10],31%
same,inhibiting p24 production (in words),[3],particularly effective
same,IC50,[7],20000 to 30000 nM
GCCTGTCGGG TCCT (GCCTGTCGGGTCCT; chemistry not given here) [SEQ. ID. NO. 20],% p24 production,[3]; [9],55%
same,% p24 production,[3]; [10],42%
same,inhibiting p24 production (in words),[3],particularly effective
GCTTCTTCCTGCCATAGGAGA (GCTTCTTCCTGCCATAGGAGA; chemistry not given here) [SEQ. ID. NO. 33],% p24 production,[3]; [11],109%
same,% p24 production,[3]; [12],74%
GGGCCTGTCGGGTCCCCTCGGG (GGGCCTGTCGGGTCCCCTCGGG; chemistry not given here) [SEQ. ID. NO. 29],% p24 production,[3]; [9],79%
same,% p24 production,[3]; [10],58%
same,inhibiting p24 production (in words),[3],particularly effective
TTGGGAGGTG GGTTGCTTTG (TTGGGAGGTGGGTTGCTTTG; chemistry not given here) [SEQ. ID. NO. 14],% p24 production,[3]; [11],103%
same,% p24 production,[3]; [12],66%
